Experimental data from the NIST ThermoML archive (doi:10.1021/je500513b).
Numbers after ± are expanded uncertainties.

Assay: mn = molality of the nth substance listed, in mol/kg
Details: for surface tension liquid-gas: Pendant drop shape; for electrical conductivity: 100 kPa, Liquid, Mettler Toledo inLab 710

CCCCCCCCCCCC[N+](C)(C)CCCCCC[N+](C)(C)CCCCCCCCCCCC.[Br-].[Br-] + O
Details | electrical conductivity [S/m] | surface tension liquid-gas [mN/m]
298.15 K, m1 = 0.0001 | – | 61.45 ± 2
298.15 K, m1 = 0.0002 | – | 53.1 ± 1
298.15 K, m1 = 0.0004 | – | 47.33 ± 0.7
298.15 K, m1 = 0.00056 | 0.0115 ± 0.0005 | –
298.15 K, m1 = 0.00059 | 0.0123 ± 0.0005 | –
298.15 K, m1 = 0.0006 | – | 42.35 ± 0.64
298.15 K, m1 = 0.00063 | 0.0132 ± 0.0004 | –
298.15 K, m1 = 0.00067 | 0.0138 ± 0.0004 | –
298.15 K, m1 = 0.0007 | – | 40.01 ± 0.57
298.15 K, m1 = 0.00071 | 0.0147 ± 0.0004 | –
298.15 K, m1 = 0.00077 | 0.0159 ± 0.0004 | –
298.15 K, m1 = 0.0008 | – | 38.21 ± 0.46
298.15 K, m1 = 0.00083 | 0.017 ± 0.0004 | –
298.15 K, m1 = 0.00085 | – | 38.13 ± 0.38
298.15 K, m1 = 0.00087 | 0.0176 ± 0.0004 | –
298.15 K, m1 = 0.0009 | – | 37.83 ± 0.38
298.15 K, m1 = 0.00091 | 0.0182 ± 0.0004 | –
298.15 K, m1 = 0.00095 | 0.0188 ± 0.0003 | –
298.15 K, m1 = 0.001 | 0.0194 ± 0.0003 | 37.53 ± 0.37
298.15 K, m1 = 0.00105 | 0.02 ± 0.0003 | –
298.15 K, m1 = 0.0011 | – | 37.34 ± 0.37
298.15 K, m1 = 0.00111 | 0.0206 ± 0.0003 | –
298.15 K, m1 = 0.00118 | 0.0212 ± 0.0003 | –
298.15 K, m1 = 0.0012 | – | 37.28 ± 0.37
298.15 K, m1 = 0.00125 | 0.0219 ± 0.0003 | –
298.15 K, m1 = 0.00133 | 0.0225 ± 0.0003 | –
298.15 K, m1 = 0.00143 | 0.0231 ± 0.0003 | –
298.15 K, m1 = 0.0015 | – | 37.38 ± 0.37
298.15 K, m1 = 0.00154 | 0.024 ± 0.0003 | –
298.15 K, m1 = 0.00167 | 0.0249 ± 0.0003 | –
298.15 K, m1 = 0.00182 | 0.0259 ± 0.0003 | –
298.15 K, m1 = 0.002 | 0.0269 ± 0.0003 | 37.23 ± 0.37
303.15 K, m1 = 0.00057 | 0.0136 ± 0.0005 | –
303.15 K, m1 = 0.00061 | 0.0143 ± 0.0004 | –
303.15 K, m1 = 0.00065 | 0.0151 ± 0.0004 | –
303.15 K, m1 = 0.00068 | 0.0158 ± 0.0005 | –
303.15 K, m1 = 0.00071 | 0.0166 ± 0.0005 | –
303.15 K, m1 = 0.00075 | 0.0173 ± 0.0004 | –
303.15 K, m1 = 0.0008 | 0.0183 ± 0.0004 | –
303.15 K, m1 = 0.00083 | 0.0189 ± 0.0004 | –
303.15 K, m1 = 0.00087 | 0.0196 ± 0.0004 | –
303.15 K, m1 = 0.00091 | 0.0202 ± 0.0004 | –
303.15 K, m1 = 0.00095 | 0.0209 ± 0.0004 | –
303.15 K, m1 = 0.001 | 0.0216 ± 0.0004 | –
303.15 K, m1 = 0.00105 | 0.0223 ± 0.0003 | –
303.15 K, m1 = 0.00111 | 0.023 ± 0.0003 | –
303.15 K, m1 = 0.00118 | 0.0237 ± 0.0003 | –
303.15 K, m1 = 0.00125 | 0.0244 ± 0.0003 | –
303.15 K, m1 = 0.00133 | 0.0252 ± 0.0003 | –
303.15 K, m1 = 0.00143 | 0.0261 ± 0.0003 | –
303.15 K, m1 = 0.00154 | 0.027 ± 0.0003 | –
303.15 K, m1 = 0.0016 | 0.0276 ± 0.0003 | –
303.15 K, m1 = 0.00167 | 0.0281 ± 0.0003 | –
303.15 K, m1 = 0.00174 | 0.0287 ± 0.0003 | –
303.15 K, m1 = 0.00182 | 0.0293 ± 0.0003 | –
303.15 K, m1 = 0.0019 | 0.03 ± 0.0003 | –
303.15 K, m1 = 0.002 | 0.0307 ± 0.0003 | –
308.15 K, m1 = 0.00065 | 0.0167 ± 0.0006 | –
308.15 K, m1 = 0.00068 | 0.0175 ± 0.0005 | –
308.15 K, m1 = 0.00071 | 0.0182 ± 0.0005 | –
308.15 K, m1 = 0.00075 | 0.0193 ± 0.0005 | –
308.15 K, m1 = 0.0008 | 0.0203 ± 0.0004 | –
308.15 K, m1 = 0.00083 | 0.0209 ± 0.0005 | –
308.15 K, m1 = 0.00087 | 0.0217 ± 0.0005 | –
308.15 K, m1 = 0.00091 | 0.0225 ± 0.0004 | –
308.15 K, m1 = 0.00095 | 0.0232 ± 0.0004 | –
308.15 K, m1 = 0.001 | 0.024 ± 0.0004 | –
308.15 K, m1 = 0.00105 | 0.0248 ± 0.0004 | –
308.15 K, m1 = 0.00111 | 0.0257 ± 0.0004 | –
308.15 K, m1 = 0.00118 | 0.0266 ± 0.0004 | –
308.15 K, m1 = 0.00125 | 0.0275 ± 0.0004 | –
308.15 K, m1 = 0.00133 | 0.0284 ± 0.0004 | –
308.15 K, m1 = 0.00143 | 0.0294 ± 0.0004 | –
308.15 K, m1 = 0.00154 | 0.0306 ± 0.0004 | –
308.15 K, m1 = 0.0016 | 0.0312 ± 0.0004 | –
308.15 K, m1 = 0.00167 | 0.0318 ± 0.0004 | –
308.15 K, m1 = 0.00174 | 0.0325 ± 0.0004 | –
308.15 K, m1 = 0.00182 | 0.0332 ± 0.0004 | –
308.15 K, m1 = 0.0019 | 0.0339 ± 0.0004 | –
308.15 K, m1 = 0.002 | 0.0346 ± 0.0004 | –
313.15 K, m1 = 0.00057 | 0.0163 ± 0.0004 | –
313.15 K, m1 = 0.00061 | 0.0171 ± 0.0005 | –
313.15 K, m1 = 0.00065 | 0.0182 ± 0.0006 | –
313.15 K, m1 = 0.00068 | 0.0191 ± 0.0007 | –
313.15 K, m1 = 0.00071 | 0.02 ± 0.0005 | –
313.15 K, m1 = 0.00075 | 0.021 ± 0.0005 | –
313.15 K, m1 = 0.0008 | 0.0222 ± 0.0006 | –
313.15 K, m1 = 0.00083 | 0.023 ± 0.0006 | –
313.15 K, m1 = 0.00087 | 0.024 ± 0.0005 | –
313.15 K, m1 = 0.00091 | 0.0248 ± 0.0005 | –
313.15 K, m1 = 0.00095 | 0.0259 ± 0.0005 | –
313.15 K, m1 = 0.001 | 0.0269 ± 0.0005 | –
313.15 K, m1 = 0.00105 | 0.0278 ± 0.0004 | –
313.15 K, m1 = 0.00111 | 0.0288 ± 0.0004 | –
313.15 K, m1 = 0.00118 | 0.0299 ± 0.0004 | –
313.15 K, m1 = 0.00125 | 0.0308 ± 0.0004 | –
313.15 K, m1 = 0.00133 | 0.0321 ± 0.0004 | –
313.15 K, m1 = 0.00143 | 0.0333 ± 0.0004 | –
313.15 K, m1 = 0.00154 | 0.0347 ± 0.0004 | –
313.15 K, m1 = 0.0016 | 0.0353 ± 0.0004 | –
313.15 K, m1 = 0.00167 | 0.036 ± 0.0004 | –
313.15 K, m1 = 0.00174 | 0.0368 ± 0.0004 | –
313.15 K, m1 = 0.00182 | 0.0376 ± 0.0004 | –
313.15 K, m1 = 0.0019 | 0.0384 ± 0.0004 | –
313.15 K, m1 = 0.002 | 0.0392 ± 0.0005 | –
318.15 K, m1 = 0.00057 | 0.0184 ± 0.0005 | –
318.15 K, m1 = 0.00061 | 0.0193 ± 0.0005 | –
318.15 K, m1 = 0.00065 | 0.0206 ± 0.0008 | –
318.15 K, m1 = 0.00069 | 0.0222 ± 0.0007 | –
318.15 K, m1 = 0.00074 | 0.0237 ± 0.0006 | –
318.15 K, m1 = 0.0008 | 0.0254 ± 0.0006 | –
318.15 K, m1 = 0.00085 | 0.0265 ± 0.0006 | –
318.15 K, m1 = 0.00091 | 0.0281 ± 0.0006 | –
318.15 K, m1 = 0.00095 | 0.0292 ± 0.0006 | –
318.15 K, m1 = 0.001 | 0.0302 ± 0.0005 | –
318.15 K, m1 = 0.00104 | 0.031 ± 0.0005 | –
318.15 K, m1 = 0.00109 | 0.0318 ± 0.0005 | –
318.15 K, m1 = 0.00114 | 0.0328 ± 0.0005 | –
318.15 K, m1 = 0.00119 | 0.0337 ± 0.0005 | –
318.15 K, m1 = 0.00125 | 0.0347 ± 0.0005 | –
318.15 K, m1 = 0.00132 | 0.0358 ± 0.0005 | –
318.15 K, m1 = 0.00139 | 0.0368 ± 0.0005 | –
318.15 K, m1 = 0.00147 | 0.038 ± 0.0005 | –
318.15 K, m1 = 0.00156 | 0.0393 ± 0.0005 | –
318.15 K, m1 = 0.00167 | 0.0406 ± 0.0005 | –
318.15 K, m1 = 0.00172 | 0.0413 ± 0.0005 | –
318.15 K, m1 = 0.00179 | 0.042 ± 0.0005 | –
318.15 K, m1 = 0.00185 | 0.0428 ± 0.0005 | –
318.15 K, m1 = 0.00192 | 0.0437 ± 0.0005 | –
318.15 K, m1 = 0.002 | 0.0446 ± 0.0005 | –
323.15 K, m1 = 0.00065 | 0.022 ± 0.0008 | –
323.15 K, m1 = 0.00069 | 0.0235 ± 0.0007 | –
323.15 K, m1 = 0.00074 | 0.025 ± 0.0007 | –
323.15 K, m1 = 0.0008 | 0.0271 ± 0.0007 | –
323.15 K, m1 = 0.00085 | 0.0288 ± 0.0007 | –
323.15 K, m1 = 0.00091 | 0.0305 ± 0.0007 | –
323.15 K, m1 = 0.00095 | 0.0317 ± 0.0007 | –
323.15 K, m1 = 0.001 | 0.0331 ± 0.0007 | –
323.15 K, m1 = 0.00104 | 0.0343 ± 0.0006 | –
323.15 K, m1 = 0.00109 | 0.0355 ± 0.0006 | –
323.15 K, m1 = 0.00114 | 0.0367 ± 0.0006 | –
323.15 K, m1 = 0.00119 | 0.038 ± 0.0006 | –
323.15 K, m1 = 0.00125 | 0.0393 ± 0.0006 | –
323.15 K, m1 = 0.00132 | 0.0406 ± 0.0005 | –
323.15 K, m1 = 0.00139 | 0.0418 ± 0.0006 | –
323.15 K, m1 = 0.00147 | 0.0433 ± 0.0005 | –
323.15 K, m1 = 0.00156 | 0.0443 ± 0.0005 | –
323.15 K, m1 = 0.00167 | 0.0455 ± 0.0005 | –
323.15 K, m1 = 0.00172 | 0.0464 ± 0.0006 | –
323.15 K, m1 = 0.00179 | 0.0473 ± 0.0006 | –
323.15 K, m1 = 0.00185 | 0.0482 ± 0.0006 | –
323.15 K, m1 = 0.00192 | 0.0491 ± 0.0006 | –
323.15 K, m1 = 0.002 | 0.0501 ± 0.0006 | –
